Measurements published in US8124056B2, “High throughput genetic screening of lipid and cholesterol processing using fluorescent compounds” (Trustees of the University of Pennsylvania, priority 2000, dated 2012).

Key:
[1] = system: mice; assay: Biliary fluorescence in mice given PED6 by gavage; assay type: in vivo, mouse; details: PED6 1 μg by gavage, t=30 min
Experimental: FIG. 5. Lipid processing. […] C. Mouse digestive organs. D. Gall bladder fluorescence after processing (t=30 min) of PED6 (1 μg), administered by gavage. Symbols: gb, ball bladder; d, common bile duct; lv, liver. Scale bars, 1.0 mm (C and D), 200 μm (other images).

[2] = system: 5 dpf zebrafish larvae; assay: Gall bladder fluorescence in 5 dpf zebrafish larvae soaked in fluorescent lipids; details: 5 dpf larvae soaked in the lipid
Experimental: A. Bright-field image of a 5 dpf larva soaked in PED6 (3 μg/ml, 2 hr). B. Corresponding fluorescent image, with intestinal (arrow) and gall bladder (arrowhead) labeling. C. Larva soaked in BODIPY-C5-PC (0.2 μg/ml).
To determine whether these reagents could be used to study organ specific PLA2 activity, the quenched fluorescent lipids were administered to zebrafish larvae at 5 dpf, a developmental stage when the major larval organ systems function (FIG. 2).
First, to establish that PED6 is swallowed by the larvae, an unquenched fluorescent lipid was administered to 5 dpf larvae, and the appearance of labeled lipid in the pharynx and intestinal lumen before the gallbladder was noted (FIGS. 3C & 4). […] Dissected adult gall bladders were lysed in embryo medium (EM) (30 μl) containing BODIPY-FL-C5-PC (0.1 μg) to release bile. PLA2 activity was determined as described (1). Measurements were compared with activity of bile-depleted gallbladders. […] Fluorescent images were captured over 1 hr using a Zeiss Axiocam 2 mounted on a Leica MZFL-III.

Molecule | biliary (gall bladder) fluorescence after gavage [1] | time to gall bladder fluorescence after ingesting the lipid [2]
CCCCCCCCCCCCCCCC(=O)OC[C@H](COP(=O)(O)OCCNC(=O)CCCCCNc1ccc([N+](=O)[O-])cc1[N+](=O)[O-])OC(=O)CCCCC1=[N+]2C(=Cc3c(C)cc(C)n3[B-]2(F)F)C=C1 [PED6, N-((6-(2,4-dinitrophenyl)amino)hexanoyl)-1-palmitoyl-2-BODIPY-FL-pentanoyl-sn-glycero-3-phosphoethanolamine] | rapid appearance of biliary fluorescence | 15 to 20 min
nitrobenzoxadiazole cholesterol [NDB cholesterol] | – | ≤ 30 min
